As usually defined, the melting point is the temperature of the solid-liquid transition.

`C[C@H]1C/C=C/C(=O)O[C@@H](C)CC(=O)O[C@@H](C)C/C=C/C(=O)O1` [Example 1] yielded a melting point of 94 to 95 °C.

These data come from patent publication US20060030720A1, “Method for synthesizing macrosphelides” (priority 2002, published 2006).
